Literature values, collected in patent publication US11529374B2, “Extract and formulation including extract” (NIPPON ZOKI PHARMACEUTICAL CO., LTD., priority 2012, dated 2022).

Details: particularly an effect for non-inflammatory pain diseases such as neuropathic pain disease; Japanese Patent No. 4005115, CN 101600438B

In the case of `CC(=O)N[C@H]1[C@H]([C@H](O)[C@H](O)CO)OC(O)(C(=O)O)C[C@@H]1O` (stereo partly shown) [N-acetylneuraminic acid], the Analgesic action is listed as “has an analgesic action”.
